Experimental data taken from paper PMC7345905, “Microbial Metabolite Urolithin B Inhibits Recombinant Human Monoamine Oxidase A Enzyme” (Metabolites, 2020).
pKi: −log10 of the molar value. Where “and” joins values, the source holds several entries; their conditions need not be identical. Identical values can stand only once.

What was measured:
human recombinant MAO-B = target: T1, human recombinant MAO-B (Homo sapiens, UniProt P27338); experiment: MAO-Glo MAO-B inhibition assay; format: biochemical; details: N=1-3, listed as UroA
T1 construct: purchased Sigma-Aldrich
T1 sequence (P27338 1-520): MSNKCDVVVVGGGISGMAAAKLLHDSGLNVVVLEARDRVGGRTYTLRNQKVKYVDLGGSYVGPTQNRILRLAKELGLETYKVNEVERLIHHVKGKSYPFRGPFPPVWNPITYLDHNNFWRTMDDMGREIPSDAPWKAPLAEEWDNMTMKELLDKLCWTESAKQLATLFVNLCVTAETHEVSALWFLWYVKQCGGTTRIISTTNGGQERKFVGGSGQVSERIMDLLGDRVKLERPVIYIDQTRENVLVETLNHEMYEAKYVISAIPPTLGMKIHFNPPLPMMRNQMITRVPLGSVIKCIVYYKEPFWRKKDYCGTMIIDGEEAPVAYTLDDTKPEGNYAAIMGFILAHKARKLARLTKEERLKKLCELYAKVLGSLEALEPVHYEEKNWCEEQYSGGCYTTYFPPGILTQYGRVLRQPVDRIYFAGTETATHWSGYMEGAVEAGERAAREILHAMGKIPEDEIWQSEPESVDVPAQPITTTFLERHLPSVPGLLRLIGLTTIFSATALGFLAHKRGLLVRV
Protocol: (§1) MAO inhibition assays were performed using a MAO-Glo™ Assay kit (Promega) according to the manufacturer’s instructions. Briefly, 1 µg of human recombinant MAO-A and MAO-B enzyme isoforms were incubated with 160 and 16 µM of MAO substrates, respectively. […] The enzyme reaction was quenched by the addition of a luciferin detection reagent. […] An equal volume of dimethyl sulfoxide (0.1%) was added to the enzyme assay as a control. After 1 h of incubation, the luminescence was measured with a multimode microplate reader (Synergy HT, BioTek, Winooski, VT, USA) to determine the MAO enzyme activities. Initially, the inhibition potential of all the test compounds was evaluated at a concentration of 100 μM. The control reaction (with no inhibitor) with vehicle (DMSO 0.1%) was set at 100% activity. To determine IC50 of the test compounds, the dose dependent enzyme assays were performed. We used range of 0.1 to 50 μM concentrations for MAO-A and 0.1 to 200 μM concentrations of test compounds for the MAO-B enzyme activities. The type of enzyme inhibition was determined using variable concentrations of MAO-A substrate (10–360 µM) and MAO-B substrate (2–64 µM) for the respective enzyme assay. […] A Lineweaver–Burk double reciprocal plot was generated, and the mode of inhibition was determined by visual examination of the plot. The slope of the reciprocal plots was plotted against the inhibitor concentrations and determined the x-axis intercept that represented the inhibitor constant, Ki value.

human recombinant MAO-A = target: T2, human recombinant MAO-A (Homo sapiens, UniProt P21397); experiment: MAO-A inhibition kinetics (variable substrate, Lineweaver–Burk plot); format: biochemical; design: Michaelis-Menten best-fit Vmax of MAO-A / Michaelis-Menten best-fit Vmax of MAO-A, Average: unit not given here; details: for MAO-A assay signal (luminescence) / Transformed (reciprocal of MAO-A assay signal) / Michaelis-Menten best-fit Vmax of MAO-A: N=1-3
T2 construct: purchased Sigma-Aldrich
T2 sequence (P21397 1-527): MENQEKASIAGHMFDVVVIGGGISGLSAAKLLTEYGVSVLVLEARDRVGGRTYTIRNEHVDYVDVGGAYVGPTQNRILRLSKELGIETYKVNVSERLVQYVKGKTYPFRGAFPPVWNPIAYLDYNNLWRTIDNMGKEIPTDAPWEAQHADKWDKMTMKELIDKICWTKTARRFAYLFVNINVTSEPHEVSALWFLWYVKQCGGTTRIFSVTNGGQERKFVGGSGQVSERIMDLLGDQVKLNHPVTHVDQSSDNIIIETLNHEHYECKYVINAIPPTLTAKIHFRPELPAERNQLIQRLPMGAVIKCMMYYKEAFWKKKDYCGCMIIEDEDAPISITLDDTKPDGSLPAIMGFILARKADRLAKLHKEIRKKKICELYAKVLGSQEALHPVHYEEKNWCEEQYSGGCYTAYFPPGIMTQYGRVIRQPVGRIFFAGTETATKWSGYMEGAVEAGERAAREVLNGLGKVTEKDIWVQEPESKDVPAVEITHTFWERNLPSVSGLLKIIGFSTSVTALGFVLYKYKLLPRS
Protocol: as §1
All experiments were performed in triplicates and data are presented as mean ± standard error of the mean (SEM). The raw data are provided in Supplementary Data, Table S1. Enzyme kinetic data were analyzed using the Lineweaver–Burk plot. Statistical analysis was performed by Student’s t-test using GraphPad Prism Ver. 7.0 (GraphPad Prism Software Inc., San Diego, CA, USA).

[1] = UroA 3 µM, MAO-A substrate 10 uM
[2] = UroA 3 µM, MAO-A substrate 20 uM
[3] = UroA 3 µM, MAO-A substrate 40 uM
[4] = UroA 3 µM, MAO-A substrate 80 uM
[5] = UroA 3 µM, MAO-A substrate 160 uM
[6] = UroA 3 µM, MAO-A substrate 320 uM
[7] = UroA 12 µM, MAO-A substrate 10 uM
[8] = UroA 12 µM, MAO-A substrate 20 uM
[9] = UroA 12 µM, MAO-A substrate 40 uM
[10] = UroA 12 µM, MAO-A substrate 80 uM
[11] = UroA 12 µM, MAO-A substrate 160 uM

- mode of inhibition of MAO-A (human recombinant MAO-A; Lineweaver–Burk plot): mixed mode of inhibition
- MAO-A assay signal (luminescence), Average (human recombinant MAO-A; [1]): 962.333
- MAO-A assay signal (luminescence) (human recombinant MAO-A; [1]): 1018 and 920 and 949
- MAO-A assay signal (luminescence), Average (human recombinant MAO-A; [2]): 1760.33
- MAO-A assay signal (luminescence) (human recombinant MAO-A; [2]): 1739 and 1707 and 1835
- MAO-A assay signal (luminescence), Average (human recombinant MAO-A; [3]): 3218.67
- MAO-A assay signal (luminescence) (human recombinant MAO-A; [3]): 3261 and 3188 and 3207
- MAO-A assay signal (luminescence), Average (human recombinant MAO-A; [4]): 6181.33
- MAO-A assay signal (luminescence) (human recombinant MAO-A; [4]): 6231 and 6107 and 6206
- MAO-A assay signal (luminescence), Average (human recombinant MAO-A; [5]): 11480.7
- MAO-A assay signal (luminescence) (human recombinant MAO-A; [5]): 11583 and 11575 and 11284
- MAO-A assay signal (luminescence), Average (human recombinant MAO-A; [6]): 20098
- MAO-A assay signal (luminescence) (human recombinant MAO-A; [6]): 20331 and 20247 and 19716
- Transformed (reciprocal of MAO-A assay signal), Average (human recombinant MAO-A; UroA 3 µM, [1/S] 0.003125): 4.976e-5
- Transformed (reciprocal of MAO-A assay signal) (human recombinant MAO-A; UroA 3 µM, [1/S] 0.003125): 4.9186e-5 and 4.939e-5 and 5.072e-5
- Transformed (reciprocal of MAO-A assay signal), Average (human recombinant MAO-A; UroA 3 µM, [1/S] 0.00625): 8.7103e-5
- Transformed (reciprocal of MAO-A assay signal) (human recombinant MAO-A; UroA 3 µM, [1/S] 0.00625): 8.633e-5 and 8.639e-5 and 8.862e-5
- Transformed (reciprocal of MAO-A assay signal), Average (human recombinant MAO-A; UroA 3 µM, [1/S] 0.0125): 0.0001618
- Transformed (reciprocal of MAO-A assay signal) (human recombinant MAO-A; UroA 3 µM, [1/S] 0.0125): 0.0001605 and 0.0001637 and 0.0001611
- Transformed (reciprocal of MAO-A assay signal), Average (human recombinant MAO-A; UroA 3 µM, [1/S] 0.025): 0.0003107
- Transformed (reciprocal of MAO-A assay signal) (human recombinant MAO-A; UroA 3 µM, [1/S] 0.025): 0.0003067 and 0.0003137 and 0.0003118
- Transformed (reciprocal of MAO-A assay signal), Average (human recombinant MAO-A; UroA 3 µM, [1/S] 0.05): 0.0005681
- Transformed (reciprocal of MAO-A assay signal) (human recombinant MAO-A; UroA 3 µM, [1/S] 0.05): 0.000575 and 0.0005858 and 0.000545
- Transformed (reciprocal of MAO-A assay signal), Average (human recombinant MAO-A; UroA 3 µM, [1/S] 0.1): 0.001039
- Transformed (reciprocal of MAO-A assay signal) (human recombinant MAO-A; UroA 3 µM, [1/S] 0.1): 0.0009823 and 0.001087 and 0.001054
- MAO-A assay signal (luminescence), Average (human recombinant MAO-A; [7]): 978.667
- MAO-A assay signal (luminescence) (human recombinant MAO-A; [7]): 993 and 1030 and 913
- MAO-A assay signal (luminescence), Average (human recombinant MAO-A; [8]): 1695.33
- MAO-A assay signal (luminescence) (human recombinant MAO-A; [8]): 1731 and 1673 and 1682
- MAO-A assay signal (luminescence), Average (human recombinant MAO-A; [9]): 3058.33
- MAO-A assay signal (luminescence) (human recombinant MAO-A; [9]): 3191 and 2983 and 3001
- MAO-A assay signal (luminescence), Average (human recombinant MAO-A; [10]): 5849.33
- MAO-A assay signal (luminescence) (human recombinant MAO-A; [10]): 5814 and 5864 and 5870
- MAO-A assay signal (luminescence), Average (human recombinant MAO-A; [11]): 10871
- MAO-A assay signal (luminescence) (human recombinant MAO-A; [11]): 10945 and 10745 and 10923
- MAO-A assay signal (luminescence), Average (human recombinant MAO-A; UroA 12 µM, MAO-A substrate 320 uM): 12941.7
- Transformed (reciprocal of MAO-A assay signal), Average (human recombinant MAO-A; UroA 12 µM, [1/S] 0.003125): 7.727e-5
- Transformed (reciprocal of MAO-A assay signal) (human recombinant MAO-A; UroA 12 µM, [1/S] 0.003125): 8.026e-5 and 7.7238e-5 and 7.452e-5
- Transformed (reciprocal of MAO-A assay signal), Average (human recombinant MAO-A; UroA 12 µM, [1/S] 0.00625): 9.199e-5
- Transformed (reciprocal of MAO-A assay signal) (human recombinant MAO-A; UroA 12 µM, [1/S] 0.00625): 9.137e-5 and 9.307e-5 and 9.155e-5
- Transformed (reciprocal of MAO-A assay signal), Average (human recombinant MAO-A; UroA 12 µM, [1/S] 0.0125): 0.000171
- Transformed (reciprocal of MAO-A assay signal) (human recombinant MAO-A; UroA 12 µM, [1/S] 0.0125): 0.000172 and 0.0001705 and 0.0001704
- Transformed (reciprocal of MAO-A assay signal), Average (human recombinant MAO-A; UroA 12 µM, [1/S] 0.025): 0.000327
- Transformed (reciprocal of MAO-A assay signal) (human recombinant MAO-A; UroA 12 µM, [1/S] 0.025): 0.0003134 and 0.0003352 and 0.0003332
- Transformed (reciprocal of MAO-A assay signal), Average (human recombinant MAO-A; UroA 12 µM, [1/S] 0.05): 0.0005899
- Transformed (reciprocal of MAO-A assay signal) (human recombinant MAO-A; UroA 12 µM, [1/S] 0.05): 0.0005777 and 0.0005977 and 0.0005945
- Transformed (reciprocal of MAO-A assay signal), Average (human recombinant MAO-A; UroA 12 µM, [1/S] 0.1): 0.001022
- Transformed (reciprocal of MAO-A assay signal) (human recombinant MAO-A; UroA 12 µM, [1/S] 0.1): 0.001007 and 0.0009709 and 0.001095
- Michaelis-Menten best-fit Vmax of MAO-A, Average (human recombinant MAO-A; in presence of UroA 3 uM): 79114.7
- Michaelis-Menten best-fit Vmax of MAO-A (human recombinant MAO-A; in presence of UroA 3 uM): 80970 and 83529 and 72845
- Michaelis-Menten best-fit Vmax of MAO-A, Average (human recombinant MAO-A; in presence of UroA 12 uM): 65883.7
- Michaelis-Menten best-fit Vmax of MAO-A (human recombinant MAO-A; in presence of UroA 12 uM): 75205 and 61786 and 60660
- pKi (human recombinant MAO-A; x-axis intercept of slopes of Lineweaver–Burk plots vs inhibitor concentration): 5.00
SMILES: O=c1oc2cc(O)ccc2c2ccc(O)cc12 [UA, urolithin-A]
- MAO-B enzyme assay, Percent of control (human recombinant MAO-B; 0.1 µM): 100.912% of control and 101.373% of control and 99.9795% of control
- MAO-B enzyme assay, Percent of control (human recombinant MAO-B; 1 µM): 93.9146% of control and 96.8343% of control and 95.7816% of control
- MAO-B enzyme assay, Percent of control (human recombinant MAO-B; 10 µM): 91.0665% of control and 92.3573% of control and 93.7097% of control
- MAO-B enzyme assay, Percent of control (human recombinant MAO-B; 25 µM): 94.1092% of control and 90.4928% of control
- MAO-B enzyme assay, Percent of control (human recombinant MAO-B; 50 µM): 81.2724% of control and 83.4341% of control and 89.5093% of control
- MAO-B enzyme assay, Percent of control (human recombinant MAO-B; 100 µM (Figure 1C), 100 µM): 76.7559% of control and 78.826% of control and 78.8568% of control
- MAO-B enzyme assay, Percent of control (human recombinant MAO-B; 100 µM): 71.1402% of control and 80.3709% of control and 83.4443% of control
- MAO-B enzyme assay, Percent of control (human recombinant MAO-B; 200 µM): 40.5081% of control and 42.2805% of control and 48.6733% of control
